Patent publication US11485742B2, “2-azaspiro[3.4]octane derivatives as M4 agonists” (NOVARTIS AG, priority 2019, dated 2022)
Counter-ions that a name gives are not always drawn.

Legend:
[1] = molecular target: T1, human cloned CHRM4 receptor (Homo sapiens, UniProt P08173); assay: CHRM4 Ca++ Flux Assay (M4_CHO cells, agonist mode); type: cell-based; conditions: for M4 FDSS PA % / Emax: Percent Activity (PA); for EC50: geometric mean if tested more than once, read-out: M4 FDSS EC50; for Emax: read-out: M4 FDSS PA %
T1 construct: expressed in transfected cells; host or cells: CHO-K1 (M4_CHO)
T1 sequence (P08173 1-479): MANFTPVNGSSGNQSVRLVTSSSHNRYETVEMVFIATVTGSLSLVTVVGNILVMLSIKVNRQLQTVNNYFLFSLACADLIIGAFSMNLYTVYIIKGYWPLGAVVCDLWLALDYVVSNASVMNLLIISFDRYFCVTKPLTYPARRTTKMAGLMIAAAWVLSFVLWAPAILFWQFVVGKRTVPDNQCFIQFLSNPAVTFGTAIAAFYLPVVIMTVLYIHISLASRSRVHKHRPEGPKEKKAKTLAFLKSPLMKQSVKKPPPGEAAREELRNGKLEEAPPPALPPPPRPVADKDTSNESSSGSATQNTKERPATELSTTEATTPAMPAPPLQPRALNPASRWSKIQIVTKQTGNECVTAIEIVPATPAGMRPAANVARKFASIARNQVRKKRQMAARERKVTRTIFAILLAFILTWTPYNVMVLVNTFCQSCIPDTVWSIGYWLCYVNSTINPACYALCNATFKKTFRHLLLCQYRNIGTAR
Outline: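 CHO-K1 cells stably expressing human M4 were dye-loaded, then held 60 min at RT in Ca/Mg-free HBSS buffer with 20 μM ATP. Ca++ traces were recorded over 3 min after an 11-point compound series in triplicate, agonist mode, with a four-parameter fit. Percent activity is relative to the carbachol EC100; repeat tests are geometric means.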

[2] = molecular target: T2, human cloned CHRM3 receptor (Homo sapiens, UniProt P20309); assay: CHRM3 Ca++ Flux Assay (M3_CHO cells, agonist mode); type: cell-based; conditions: for M3 FDSS PA % / Emax: Percent Activity (PA) measured to EC100 of Carbachol; for EC50: agonist mode, geometric mean if tested more than once, read-out: M3 FDSS EC50; for Emax: read-out: M3 FDSS PA %
T2 construct: expressed in transfected cells; host or cells: CHO-K1 (M3_CHO)
Outline: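 CHO-K1 cells stably expressing human M3 or M5 receptor, dye-loaded ≥1 h, treated with 11-point compound doses in triplicate; Ca++ flux read over 3 min (FDSS). Agonist-mode four-parameter fit; percent activity relative to carbachol EC100; repeat tests reported as geometric mean.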

T2 sequence (P20309 whole entry): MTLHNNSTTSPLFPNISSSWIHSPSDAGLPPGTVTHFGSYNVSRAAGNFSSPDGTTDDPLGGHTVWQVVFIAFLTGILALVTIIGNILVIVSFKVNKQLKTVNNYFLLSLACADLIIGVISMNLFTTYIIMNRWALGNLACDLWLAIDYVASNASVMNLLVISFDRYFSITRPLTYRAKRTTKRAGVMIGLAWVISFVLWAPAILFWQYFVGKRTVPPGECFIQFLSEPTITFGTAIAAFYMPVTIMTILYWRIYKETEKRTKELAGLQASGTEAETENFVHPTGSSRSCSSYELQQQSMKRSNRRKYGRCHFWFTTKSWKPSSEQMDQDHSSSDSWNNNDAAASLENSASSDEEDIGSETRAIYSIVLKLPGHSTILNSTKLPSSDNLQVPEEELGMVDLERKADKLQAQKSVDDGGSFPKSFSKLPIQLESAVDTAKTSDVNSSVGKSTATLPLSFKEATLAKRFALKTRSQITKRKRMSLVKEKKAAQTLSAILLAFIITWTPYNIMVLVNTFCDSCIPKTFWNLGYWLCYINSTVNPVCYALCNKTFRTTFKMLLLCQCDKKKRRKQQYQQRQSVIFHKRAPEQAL

EC50 [1]	EC50 [2]	Emax [1]	Emax [2]	Compound	M4 FDSS PA % [1]	M3 FDSS PA % [2]
0.086 µM	> 25 µM	58%	0%	CC(C)(O)CCOc1ccc(F)cc1C1CCN([C@@H]2COC3(C2)CN(c2nncs2)C3)CC1 [Example 5P, (S)-4-(2-(1-(2-(1,3,4-thiadiazol-2-yl)-5-oxa-2-azaspiro[3.4]octan-7-yl)piperidin-4-yl)-4-fluorophenoxy)-2-methylbutan-2-ol]	–	–
0.345 µM	> 25 µM	39%	0%	COc1cc(F)ccc1C1CCN([C@@H]2COC3(C2)CN(c2ncns2)C3)CC1 [Example 5E, (S)-7-(4-(4-fluoro-2-methoxyphenyl)piperidin-1-yl)-2-(1,2,4-thiadiazol-5-yl)-5-oxa-2-azaspiro[3.4]octane]	–	–
0.071 µM	> 25 µM	74%	0%	Fc1ccc(O[C@H]2CCOC2)c(C2CCN([C@@H]3COC4(C3)CN(c3nncs3)C4)CC2)c1 [Example 5O, (S)-7-(4-(5-fluoro-2-(((S)-tetrahydrofuran-3-yl)oxy)phenyl)piperidin-1-yl)-2-(1,3,4-thiadiazol-2-yl)-5-oxa-2-azaspiro[3.4]octane]	–	–
0.092 µM	> 25 µM	83%	0%	c1ccc(C2CCN([C@@H]3COC4(C3)CN(c3nncs3)C4)CC2)c(OC2COC2)c1 [Example 5Q, (S)-7-(4-(2-(oxetan-3-yloxy)phenyl)piperidin-1-yl)-2-(1,3,4-thiadiazol-2-yl)-5-oxa-2-azaspiro[3.4]octane formate salt]	–	–
0.11 µM	> 25 µM	66%	0%	CC(C)(O)COc1ccc(F)cc1C1CCN([C@@H]2COC3(C2)CN(c2ncns2)C3)CC1 [Example 5C, (S)-1-(2-(1-(2-(1,2,4-thiadiazol-5-yl)-5-oxa-2-azaspiro[3.4]octan-7-yl)piperidin-4-yl)-4-fluorophenoxy)-2-methylpropan-2-ol]	–	–
0.019 µM	> 25 µM	73%	0%	COc1ccc(F)cc1C1CCN([C@@H]2COC3(C2)CN(c2ncco2)C3)CC1 [Example 4I, (S)-7-(4-(5-fluoro-2-methoxyphenyl)piperidin-1-yl)-2-(oxazol-2-yl)-5-oxa-2-azaspiro[3.4]octane]	–	–
0.197 µM	> 25 µM	69%	0%	COCCOc1ccc(F)cc1C1CCN([C@@H]2COC3(C2)CN(c2nncs2)C3)CC1 [Example 5S, (S)-7-(4-(5-fluoro-2-(2-methoxyethoxy)phenyl)piperidin-1-yl)-2-(1,3,4-thiadiazol-2-yl)-5-oxa-2-azaspiro[3.4]octane]	–	–
0.012 µM	> 25 µM	81%	0%	Fc1ccc(OC2CCOCC2)c(C2CCN([C@@H]3COC4(C3)CN(c3ncco3)C4)CC2)c1 [Example 4E, (S)-7-(4-(5-fluoro-2-((tetrahydro-2H-pyran-4-yl)oxy)phenyl)piperidin-1-yl)-2-(oxazol-2-yl)-5-oxa-2-azaspiro[3.4]octane]	–	–
0.096 µM	> 25 µM	73%	0%	COc1ccccc1C1CCN([C@@H]2COC3(C2)CN(c2nncs2)C3)CC1 [Example 5R, (S)-7-(4-(2-methoxyphenyl)piperidin-1-yl)-2-(1,3,4-thiadiazol-2-yl)-5-oxa-2-azaspiro[3.4]octane]	–	–

More lines, now with the values behind:

Compound	EC50 [1]	EC50 [2]	Emax [1]	Emax [2]	M4 FDSS PA % [1]	M3 FDSS PA % [2]
Fc1ccc(O[C@H]2CCCOC2)c(C2CCN([C@@H]3COC4(C3)CN(c3nnco3)C4)CC2)c1 (single isomer, unassigned) [Example 2R, (S)-7-(4-(5-fluoro-2-(((S)-tetrahydro-2H-pyran-3-yl)oxy)phenyl)piperidin-1-yl)-2-(1,3,4-oxadiazol-2-yl)-5-oxa-2-azaspiro[3.4]octane or (S)-7-(4-(5-fluoro-2-(((R)-tetrahydro-2H-pyran-3-yl)oxy)phenyl)piperidin-1-yl)-2-(1,3,4-oxadiazol-2-yl)-5-oxa-2-azaspiro[3.4]octane]	0.025 µM	> 25 µM	–	–	76%	0%
c1ccc([C@@H]2CCOC2)c(C2CCN([C@@H]3COC4(C3)CN(c3nnco3)C4)CC2)c1 (single isomer, unassigned) [Example 3A, (S)-2-(1,3,4-oxadiazol-2-yl)-7-(4-(2-((S)-tetrahydrofuran-3-yl)phenyl)piperidin-1-yl)-5-oxa-2-azaspiro[3.4]octane or (S)-2-(1,3,4-oxadiazol-2-yl)-7-(4-(2-((R)-tetrahydrofuran-3-yl)phenyl)piperidin-1-yl)-5-oxa-2-azaspiro[3.4]octane]	0.083 µM	> 25 µM	–	–	91%	0%
c1ccc(C2CCN([C@@H]3COC4(C3)CN(c3nnco3)C4)CC2)c(CC2CCOCC2)c1 [Example 3G, (S)-2-(1,3,4-oxadiazol-2-yl)-7-(4-(2-((tetrahydro-2H-pyran-4-yl)methyl)phenyl)piperidin-1-yl)-5-oxa-2-azaspiro[3.4]octane]	0.185 µM	> 25 µM	82%	0%	–	–
Fc1cc(F)c(OC2COC2)c(C2CCN([C@@H]3COC4(C3)CN(c3nnco3)C4)CC2)c1 [Example 2EE, (S)-7-(4-(3,5-difluoro-2-(oxetan-3-yloxy)phenyl)piperidin-1-yl)-2-(1,3,4-oxadiazol-2-yl)-5-oxa-2-azaspiro[3.4]octane]	0.086 µM	> 25 µM	74%	0%	–	–
Fc1ccc(OC[C@H]2CCO2)c(C2CCN([C@@H]3COC4(C3)CN(c3nncs3)C4)CC2)c1.O=C(O)C(F)(F)F (single isomer, unassigned) [Example 2D, (S)-7-(4-(5-fluoro-2-(((R)-oxetan-2-yl)methoxy)phenyl)piperidin-1-yl)-2-(1,3,4-thiadiazol-2-yl)-5-oxa-2-azaspiro[3.4]octane trifluoroacetate or (S)-7-(4-(5-fluoro-2-(((S)-oxetan-2-yl)methoxy)phenyl)piperidin-1-yl)-2-(1,3,4-thiadiazol-2-yl)-5-oxa-2-azaspiro[3.4]octane trifluoroacetate]	0.02 µM	> 25 µM	–	–	72%	0%
CC(C)(C#N)COc1ccc(F)cc1C1CCN([C@@H]2COC3(C2)CN(c2nnco2)C3)CC1 [Example 1E, (S)-3-(2-(1-(2-(1,3,4-oxadiazol-2-yl)-5-oxa-2-azaspiro[3.4]octan-7-yl)piperidin-4-yl)-4-fluorophenoxy)-2,2-dimethylpropanenitrile]	0.027 µM	> 25 µM	78%	0%	–	–
Fc1ccc(OC2CCOCC2)c(C2CCN([C@@H]3COC4(C3)CN(c3nnco3)C4)CC2)c1 [Example 1G, (S)-7-(4-(5-fluoro-2-((tetrahydro-2H-pyran-4-yl)oxy)phenyl)piperidin-1-yl)-2-(1,3,4-oxadiazol-2-yl)-5-oxa-2-azaspiro[3.4]octane]	0.031 µM	> 25 µM	84%	0%	–	–
Fc1cc(F)c(OC2CC3(COC3)C2)c(C2CCN([C@@H]3COC4(C3)CN(c3nnco3)C4)CC2)c1 [Example 2AA, (S)-7-(4-(2-((2-oxaspiro[3.3]heptan-6-yl)oxy)-3,5-difluorophenyl)piperidin-1-yl)-2-(1,3,4-oxadiazol-2-yl)-5-oxa-2-azaspiro[3.4]octane]	0.21 µM	> 25 µM	16%	0%	–	–
Fc1ccc([C@H]2CCOC2)c(C2CCN([C@@H]3COC4(C3)CN(c3nnco3)C4)CC2)c1 (single isomer, unassigned) [Example 3F, (S)-7-(4-(5-fluoro-2-((R)-tetrahydrofuran-3-yl)phenyl)piperidin-1-yl)-2-(1,3,4-oxadiazol-2-yl)-5-oxa-2-azaspiro[3.4]octane or (S)-7-(4-(5-fluoro-2-((S)-tetrahydrofuran-3-yl)phenyl)piperidin-1-yl)-2-(1,3,4-oxadiazol-2-yl)-5-oxa-2-azaspiro[3.4]octane]	0.023 µM	> 25 µM	–	–	80%	0%
Fc1ccc(OCC2C3COCC32)c(C2CCN([C@@H]3COC4(C3)CN(c3nnco3)C4)CC2)c1 (stereo partly drawn) [Example 2Z, (7S)-7-(4-(2-((3-oxabicyclo[3.1.0]hexan-6-yl)methoxy)-5-fluorophenyl)piperidin-1-yl)-2-(1,3,4-oxadiazol-2-yl)-5-oxa-2-azaspiro[3.4]octane]	0.108 µM	> 25 µM	51%	0%	–	–
